Here are results for five molecules from publication PMC8481502, “Bovine NK-lysin peptides exert potent antimicrobial activity against multidrug-resistant Salmonella outbreak isolates” (Scientific Reports, 2021).

Peptide text beside a SMILES is read from it.

Data set [1] deals with Salmonella enterica serovar Typhimurium isolate UK-1 (SB377, non-MDR). Nature of the data set: Growth curve assay (automated reader, OD600) with isolate SB377. The conditions noted are these: for growth inhibition activity on SB377 at highest tested concentration: up to 20 µM peptide, 24 h growth curve; for time at which bacteria recovered and grew after initial inhibition: SB377, LB broth. It counts as cell-based. Here is the method:
(§1) Overnight cultures of a MDR Salmonella outbreak isolate (SX238) and one non-MDR Salmonella isolate (SB377) were diluted 1:1000 in LB broth to obtain approximately 1 × 10^6 colony forming units per milliliter (CFU/mL). One hundred microliters of each diluted culture were transferred into honeycomb® 100-well plates (~ 1 × 10^5 CFU/well) (Growth Curves USA, Piscataway, NJ). Bovine NK-lysin peptides (NK1, NK2A, NK2B, and NK2C) were added at the final peptide concentrations of 20, 10, 5, 3.5, 2 µM in PBS (total volume = 20 µL) with a final bacterial-peptide volume of 120 µL/well. The plates were covered with lids and placed in an automated growth curve reader (Bioscreen C; Growth Curves USA, Piscataway, NJ) which was programmed for continuous shaking at 37 °C, and optical density readings at 600 nm (OD600) were recorded every hour for 24 h. […] The optical density data were analyzed, and growth curve graphs for each isolate were generated using MS Excel. […] Twenty-four-hour growth curve assays for Salmonella isolate SX238 were repeated at different bacterial CFU (~ 1 × 10^5, 1 × 10^6, 1 × 10^7, and 1 × 10^8 CFU/mL) with NK2A (5 µM and 10 µM). Sc-NK2A was included as a control for the assay.

Data set [2] deals with MDR Salmonella enterica serovar Heidelberg (SB395). Nature of the data set: Growth curve assay (automated reader, OD600) with isolate SB395. It counts as cell-based. The following applies: 20 µM peptide, LB broth, 24 h growth curve.
The subject of data set [3] is MDR Salmonella enterica serovar Typhimurium DT193 strain 1434 (SX231). The data set is described as follows: Growth curve assay (automated reader, OD600) with isolate SX231. The class given is cell-based. The following applies: 20 µM peptide, LB broth, 24 h growth curve.
For data set [4], the system named is Salmonella SX238 outer- and inner-membranes. The data set is described as follows: Transmission electron microscopy of peptide-treated bacteria. The conditions noted are these: 20 µM peptide, 1 h at 37 °C, ~1 × 10^7 CFU/well in PBS. The class given is cell-based, Salmonella enterica serovar I 4,[5],12:i:-. Here is the method:
Morphological changes of bacteria following incubation with NK2A and Sc-NK2A peptides were studied by TEM. An overnight culture of Salmonella (isolate SX238) was centrifuged and resuspended in PBS. One hundred microliters of bacterial suspension were placed in a Honeycomb plate (~ 1 × 10^7 CFU/well) and NK2A, Sc-NK2A (20 µM), and PBS were added and incubated at 37 °C with continuous shaking for 1 h. The bacterial suspensions were mixed with an equal volume of 3% glutaraldehyde in 0.1 M cacodylate buffer (pH 7.4) and processed for TEM as described before. Sections were examined with a FEI Tecnai G2 Biotwin (FEI Co., Hillboro, OR) TEM and images were taken with Advanced Microscopy Technologies (AMT Inc., Danvers, […]) imaging camera.

Data set [5] concerns MDR Salmonella outbreak isolate SX238 cytoplasmic membrane. The data set is described as follows: Propidium iodide (PI) uptake assay. It counts as cell-based, Salmonella enterica serovar I 4,[5],12:i:-. The method, then: The kinetics of NK2A-induced damage to Salmonella cell membranes were evaluated using PI uptake assay as described previously. Briefly, an overnight culture of MDR Salmonella outbreak isolate SX238 was centrifuged, washed with PBS, and resuspended in PBS. Ninety microliters of bacterial suspension was transferred to a 96-well opaque plate (~ 1 × 10^7 CFU/well), mixed with 10 µL of PI (final concentration = 3 µM) and incubated at 37 °C for 5 min. PBS, polymyxin B (2, 4, 25, 50 and 100 µg/mL), NK2A or Sc-NK2A (both at 2 and 5 µM) were added and PI fluorescent intensities in each well was continuously measured (15 s intervals, flex mode) using a FlexStation 3 multi-mode (fluorescent) microplate reader (Molecular Devices LLC., San Jose, CA) for up to 6 h. The excitation and emission wavelengths for PI was set up at 530 nm and 620 nm, respectively.

Data set [6] has as its system Salmonella SX238. Nature of the data set: LIVE/DEAD BacLight staining, confocal laser scanning microscopy. The class given is cell-based, Salmonella enterica serovar I 4,[5],12:i:-. The conditions noted are these: 5 µM peptide. Here is the method:
The viabilities of bacteria following incubation with NK2A and Sc-NK2A were determined using culture-independent (function of the membrane integrity of the bacteria) staining technique by using LIVE/DEAD™ BacLight™ bacterial viability kit (for microscopy) as described previously. Bacteria in each treatment was visualized using a Nikon A1R + laser scanning confocal microscope (Nikon Instruments, Melville, NY) as described previously. Images were obtained using plan Apo 60 × objective lens (oil) at numerical aperture 1.4. Final figures were prepared using Adobe Photoshop Elements 11.

Data set [7] deals with Swiss-Webster mice. Nature of the data set: Mouse study of in vivo cytotoxic effects. The conditions noted are these: single intraperitoneal dose 100 µg (~ 4 mg/kg) in PBS, female Swiss-Webster mice, 5 per cage, 2-week observation. The method, then: To determine whether NK-lysin peptides show in vivo cytotoxic effects, a mouse study was conducted. Briefly, thirty 5–6 weeks old female Swiss-Webster mice (Envigo, Indianapolis, IN) were housed in groups in six individual cages (5 mice per cage) in ABSL2 facilities with ad libitum access to food and water in a 12-h light:dark cycle. After 1 week of acclimation, mice were intraperitoneally injected with a single dose of 100 µg of NK-lysin peptides (NK1, NK2A, NK2B, NK2C, or Sc-NK2A, ~ 4 mg/kg of body weight) in PBS (1 mL). Mice injected with PBS (1 mL) served as a negative control for the study. Mice were daily observed for any signs of toxicity and were euthanized 2 weeks post peptide administration.

Data set [8] relates to MDR Salmonella enterica serovar I 4,[5],12:i:- strain USDA15WA-1 (SX238). Nature of the data set: Growth curve assay (automated reader, OD600) with isolate SX238. It counts as cell-based. The conditions noted are these: for growth inhibition activity on SX238 at highest tested concentration: up to 20 µM peptide, 24 h growth curve; for time at which bacteria recovered and grew after initial inhibition: SX238, LB broth. Here is the method: as §1

For data set [9], the system named is Salmonella isolates (MDR and non-MDR). Nature of the data set: Growth curve assay, statements over all Salmonella isolates. It counts as cell-based. The following applies: 24 h incubation in LB broth, MDR and non-MDR isolates. The method, then:
as §1

As to `CC[C@H](C)[C@H](NC(=O)[C@H](CCSC)NC(=O)[C@H](CS)NC(=O)[C@H](CCCNC(=N)N)NC(=O)[C@H](CCC(=O)O)NC(=O)[C@H](CCCCN)NC(=O)[C@H](CCCCN)NC(=O)[C@H](CS)NC(=O)[C@H](CCCCN)NC(=O)[C@H](CO)NC(=O)[C@H](CCCCN)NC(=O)CNC(=O)[C@@H](NC(=O)[C@H](CC(C)C)NC(=O)[C@H](CCCNC(=N)N)NC(=O)[C@@H](NC(=O)[C@@H](NC(=O)[C@H](C)NC(=O)[C@H](CC(C)C)NC(=O)[C@H](CO)NC(=O)[C@H](CC(C)C)NC(=O)[C@H](CO)NC(=O)[C@@H](NC(=O)[C@H](Cc1ccccc1)NC(=O)[C@@H](N)CCSC)C(C)C)[C@@H](C)O)[C@@H](C)CC)[C@@H](C)O)C(=O)N[C@@H](CC(C)C)C(=O)N[C@@H](CCCCN)C(=O)N[C@@H](CCCNC(=N)N)C(=O)N[C@@H](CCCNC(=N)N)C(=O)N[C@H](C(=O)O)C(C)C` [Sc-NK2A] (H-MFVSLSLATIRLTGKSKCKKERCMILKRRV-OH; N-terminus and C-terminus assumed), the “growth inhibition activity on SB377 at highest tested concentration” value in data set [1] (LB broth) is recorded as “failed to show Salmonella growth inhibition activity”. The “growth inhibition activity on SB395 at highest tested concentration” value in data set [2] is reported as “failed to show Salmonella growth inhibition activity”. The “growth inhibition activity on SX231 at highest tested concentration” value in data set [3] was “failed to show Salmonella growth inhibition activity”. Also, the “ultrastructural changes to bacterial membranes” value in data set [4] is “did not cause detectable damage to the bacterial membranes”. Further, in data set [5] (5 µM peptide, 30 min, ~1 × 10^7 CFU/well in PBS, 3 µM PI), the PI uptake signal result is on record as “did not show PI uptake signals”. For the same molecule, in data set [6], the “live/dead staining result (SYTO 9 / PI)” value is reported as “did not have detectable antimicrobial activity”. Also, the “signs of toxicity or death” value in [7] is on record as “did not show signs of toxicity or death”. Moreover, the “growth inhibition of SX238 at the lowest bacterial concentration” value in data set [8] (10 µM peptide, 10^4 CFU/well) was “failed to inhibit bacterial growth”. The “growth inhibition activity on SX238 at highest tested concentration” value in data set [8] (LB broth) is given as “failed to show Salmonella growth inhibition activity”.
Turning to “TVIEAASKVCGKMGPLKGLCKSITKRFLRR [NK2B, 30-mer peptide corresponding to functional region helices 2-loop-3 of bovine NK-lysin NK2B]”, in data set [1] (LB broth, ~1 × 10^5 CFU/well, 37 °C, OD600 every hour for 24 h, tested 2-20 µM), the “peptide concentration at which growth of SB377 was completely inhibited” value was at least 5 µM. Further, the “concentrations able to inhibit growth of Salmonella during 24 h” value in [9] was in the range of 3.5 to 5 µM. Moreover, the “signs of toxicity or death” value in data set [7] is given as “did not show signs of toxicity or death”. For the same molecule, the “peptide concentration at which growth of SX238 was completely inhibited” value in [8] (LB broth, ~1 × 10^5 CFU/well, 37 °C, OD600 every hour for 24 h, tested 2-20 µM, at least three experiments) is on record as at least 5 µM.
Turning to “TVIEEASKVCSKMRLLKGLCKSIMKKFLRT [NK2C, 30-mer peptide corresponding to functional region helices 2-loop-3 of bovine NK-lysin NK2C]”, the “time at which bacteria recovered and grew after initial inhibition” value in data set [1] (10 µM peptide) is recorded as “approximately 7 h”; in [1] (20 µM peptide) it was around 20 h; in data set [8] (10 µM peptide), “approximately 7 h”; in data set [8] (20 µM peptide) it was around 20 h. For the same molecule, the “signs of toxicity or death” value in data set [7] was “did not show signs of toxicity or death”.
Take “VIIHVTSKVCSKMGLWSILCNQMMKKYLNR [NK1, 30-mer peptide corresponding to functional region helices 2-loop-3 of bovine NK-lysin NK1]”: in data set [1] (LB broth), the “growth inhibition activity on SB377 at highest tested concentration” value is “did not show any Salmonella SX238 and SB377 growth inhibition activity”. For the same molecule, the “signs of toxicity or death” value in [7] is listed as “did not show signs of toxicity or death”. Moreover, the “growth inhibition activity on SX238 at highest tested concentration” value in [8] (LB broth) is “did not show any Salmonella SX238 and SB377 growth inhibition activity”.
polymyxin B [reference compound]: the PI uptake signal entry in data set [5] (polymyxin B 2-100 µg/mL, 6 h observation) is reported as “No PI uptake signal was observed”; in data set [5] (polymyxin B up to 100 µg/mL, 30 min observation), “No PI uptake signal was observed”.
